Values joined by “and” are separate entries in the source; they are usually repeats but may differ in a detail not shown here. Identical values can stand only once.
Key:
Assay type in all cases: in vivo, Guangxi Bama mini-pigs
[1] = test system: healed epidermis (proliferative layer and differentiated layer); test: Histologic epidermal thickness of healed porcine burn wounds
Description: (§1) An immunohistochemistry analysis was performed to identify the localization and expression of specific molecular markers of keratinocytes in the healed epidermis.
The epidermis partitions into two layers: a proliferative layer and a differentiated layer.

[2] = test system: CK10; test: Immunohistochemistry of healed epidermis, IOD of CK10; conditions: 4 weeks after treatment, Image-Pro Plus 6.0
Description: as §1
(§2) It can be seen from FIG. 6 that the nuclear transcription factor P63 was mainly expressed in undifferentiated proliferating keratinocytes located in the basal layer. CK 10 was mainly expressed in mature differentiating keratinocytes. The expression of P63 and CK10 protein indicate the proliferation and differentiation of keratinocytes during epithelialization and repair of wounds. The higher the expression of P63 and CK10 protein, the faster the cells proliferate and differentiate. In the late stage of wound repair, fibroblasts secrete more collagen fibers, and a large number of collagen fibers increase and are densely arranged. Masson staining is used to mark the subcutaneous collagen fibers as green. The structure of each layer of the epidermis treated with the present invention is clear. The proliferative layer and the differentiated layer can be clearly identified by immunohistochemical staining.
(§3) Integrated optical density (IOD) values analysis of immunohistological images of P63 and CK10 are performed by Image-Pro Plus 6.0, as shown in Table 3 and FIGS. 8 to 9. […]

[3] = test system: P63; test: Immunohistochemistry of healed epidermis, IOD of P63; conditions: 4 weeks after treatment, Image-Pro Plus 6.0
Description: as §1, §2, §3

[4] = test system: porcine full-thickness burn wounds; test: Porcine full-thickness burn wound healing experiment; conditions: for Wound healing time (days, X +/− S): 9 wounds per group
Description: (2) Experimental animals: Three female Guangxi Bama mini-pigs are 19-21 kilograms (provided by Tianjin Bainong Laboratory Animal Breeding Technology Co., Ltd., Tianjin, China). Animals were housed in isolated steel cages (80×100×110 cm^3) at 25° C. under natural lighting in the Experimental Animal Center, after thoroughly disinfecting the breeding room and the cages for animals with disinfectants and ultraviolet lamps. Non-experimental personnel are strictly prohibited from entering the breeding room during the experiment Animals were fed with standard pig chow twice daily, 150 grains at a time, and had access to water ad libitum (water is of the clean standard for tap water). The breeding room and cage are disinfected regularly on a weekly basis, and the feed tank and the water sink are cleaned before each feeding.
(3) Creation of porcine full-thickness burn wound models: The miniature pig was raised conventionally, fasted for 12 h, laid on one side, and injected with sumianxin injection into the hip muscle. Once anesthetized, the miniature pig was transferred to an operating table and a ventilation tube was placed in the mouth. After disinfection of the back of the ear, an indwelling needle of the auricle vein was placed for adequate analgesia and sedation. The surgical area on the back was prepared, disinfected with iodophor, on which a sterile sheet was spread, and an expected site of a burn was marked. The aluminum block mold (the net weight of the aluminum block mold is 265 g, and the load is 1 kg) was heated to 96° C. for 10 minutes, and was in close contact with the skin for 45 seconds. Each pig had 9 wounds. The operation on the back of the 3 mini pigs is consistent. After the operation, the wounds were disinfected with iodophor, on which cotton pads dressing and elastic sleeves were applied. Antibiotics were injected intravenously to prevent infection, and 2 ml of the awakening agent Lu Xingning was injected intravenously. The pigs were then transferred to the cages. One hour after waking up, the pigs were fed and given oral rehydration saline. Activities and signs of the pigs were closely observed. After the burn injury, local debridement and different treatments were performed on the wounds. Three weeks after injury, the wounds were covered by necrotic eschar, without exudate and dissolution reaction. Excisional debridement down to the fat layer was performed. Wounds were then dressed and covered with elasticated jackets to prevent animal-initiated damage. Preemptive antibiotics and analeptic Lu Xingning were administered i.v., then the animals were transferred to individual cages, and monitored closely for adverse outcomes during their post-procedure recovery. Post-surgical pain was managed with oral analgesia.
In order to verify the therapeutic effect of the composition of this application on burn wounds, the composition of Example 3 of this application, recombinant human epidermal growth factor rhEGF (5000 IU/mL, 15 mL, Shenzhen Watsin Genetech Ltd.) and physiological saline were used respectively to treat the full-thickness burn wounds of the pigs.
The wounds were photographed and measured at day 7, 14, 21, 28 after different treatments. It can be seen from FIG. 2 that the new granulation tissue of the wound is fresh and rosy without exudation. […]

With “recombinant human epidermal growth factor [rhEGF]” the “Thickness of differentiated layer (X +/− S)” value [1] was 246.20 μm, the “Thickness of proliferative layer (X +/− S)” value [1] was 35.92 μm and the “IOD (CK10) (X +/− S)” value [2] was 395254.15. For the same substance, the “IOD (P63) (X +/− S)” value [3] was 21929.27, the “wound healing, gross appearance” value ([4]; FIG. 2, versus saline group) was “heal faster than those of the saline group” and the residual wound area ([4]; FIG. 3, compared to the saline group, p<0.05) was “obviously reduced wound area at day 28”. The wound healing rate ([4]; FIG. 4, compared to the saline group, p<0.05) was “obviously improved the wound healing rate at day 7, 14, 21”, the “Wound healing time (days, X +/− S)” value ([4]; Test Example 1, time to complete epithelialization) was 23.56±4.85 days and 23.56 ± 4.85^2 days and the “Wound healing time (days, X +/− S)” value ([4]; Test Example 3) was 23.56 ± 4.85^2 days.
